Experimental data reported in patent US20070219223A1, “Compositions and methods for treating respiratory disorders” (Endacea, Inc., priority 2006, published 2007).
Where a name gives a salt, the structure may show the parent alone.

Columns and labels:
[1] = cited from earlier work
[2] = tested on: allergic rabbits; settings: baseline BHR, aerosolized histamine, n=5
Method: All animals were anesthetized and intubated. All treatments were administered via an endotracheal tube with an ultrasonic nebulizer that produces aerosol droplets (80% are less than 5 μm). Dynamic compliance (Cdyn) was calculated from tidal volume and the difference in transpulmonary pressure (PTP) at zero flow (V). Total lung resistance (RT) was calculated as the ratio of PTP and V at […] lung volumes; these measurements are made automatically with the Buxco Respiratory Analyzer.

[3] = tested on: allergic rabbits; assay: Adenosine provocation test after aerosol L-97-1 in allergic rabbits (PC50 of adenosine, lung compliance); assay type: in vivo, rabbit; settings: controls without L-97-1, aerosolized adenosine, n=9

OCc1cc(C(O)CNCCCCCCOCCCCc2ccccc2)ccc1O (stereo not drawn) [salmeterol xinafoate, salmeterol 1-hydroxy-2-napthoic acid salt]
Solubility in water [1]: sparingly soluble in water

NCCc1c[nH]cn1 [histamine]
PC50 for histamine (concentration of histamine to reduce lung compliance by 50%) [2]: 0.77 ± 0.28 mg/mL

Nc1ncnc2c1ncn2[C@@H]1O[C@H](CO)[C@@H](O)[C@H]1O [adenosine]
PC50 for adenosine (concentration of adenosine to reduce lung compliance by 50%) [3]: 3.24 ± 1.79 mg/mL
